Reference: patent publication US9284595B2 (priority 2012, dated 2016)

Columns and labels:
BoNT/A-LC [1] = target: T1, BoNT/A-LC (Clostridium botulinum, UniProt P0DPI0); assay type: biochemical
BoNT/A-LC [2] = target: T1, BoNT/A-LC; assay type: biochemical; remark: listed apart in the source
[3] = target: heat inactivated BoNT/A-LC (Clostridium botulinum, UniProt P0DPI0)
BoNT/A Toxoid = BoNT/A Toxoid (Clostridium botulinum, UniProt P0DPI0)
BoNT/A Holotoxin = BoNT/A Holotoxin (Clostridium botulinum, UniProt P0DPI0); assay type: biochemical
Sequence of BoNT/A Holotoxin (P0DPI0 2-448 limits assumed): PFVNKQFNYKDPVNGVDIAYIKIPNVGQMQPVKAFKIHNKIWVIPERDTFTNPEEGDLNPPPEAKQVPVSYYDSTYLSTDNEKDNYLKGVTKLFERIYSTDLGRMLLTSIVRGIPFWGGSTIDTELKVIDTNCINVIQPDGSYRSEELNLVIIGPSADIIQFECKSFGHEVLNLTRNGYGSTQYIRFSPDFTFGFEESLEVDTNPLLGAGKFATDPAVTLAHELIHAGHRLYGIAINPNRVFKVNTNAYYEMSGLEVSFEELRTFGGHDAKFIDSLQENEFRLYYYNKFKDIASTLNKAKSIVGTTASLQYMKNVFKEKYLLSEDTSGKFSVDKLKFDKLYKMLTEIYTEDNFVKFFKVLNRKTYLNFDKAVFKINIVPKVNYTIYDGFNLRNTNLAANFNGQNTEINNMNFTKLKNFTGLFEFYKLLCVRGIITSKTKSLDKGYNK

T1 sequence (P0DPI0 2-448 limits assumed): as above
Sequence of heat inactivated BoNT/A-LC (P0DPI0 2-448 limits assumed): as above
Sequence of BoNT/A Toxoid (P0DPI0 2-448 limits assumed): as above

## O[C@H](CS)[C@H](O)CS (racemic) [DTT, Dithiothreitol]
BoNT/A-LC [1]
  effect on BoNT/A-LC activity: reduced BoNT/A-LC activity

## MDENLEQVSGIIGNLRHMALDMGNEIDTQNRQIDRIMEKADSN(KDabcyl)TRIDEANQRATKML(K5Fam) [SEQ. ID NO. 1]
BoNT/A-LC [2]
  detection of BoNT/A-LC activity: able to detect BoNT/A-LC
  detection of BoNT/A-LC activity in the presence of common PCR inhibitors: can detect BoNT/A-LC activity in the presence of common PCR inhibitors
  detection of biologically active BoNT/A-LC: able to detect biologically active BoNT/A-LC
  fluorescence response to BoNT/A-LC: able to detect biologically active BoNT/A-LC
  increase in fluorescence overtime compared to SNAPtide: greater increase in fluorescence overtime
  limit of detection of BoNT/A-LC: at least 0.04 ng
[3]
  detection of heat inactivated BoNT/A-LC: not heat inactivated BoNT/A-LC, even when present at high concentrations
BoNT/A Toxoid
  detection of BoNT/A Toxoid: not BoNT/A Toxoid, even when present at high concentrations

## (KDabcyl)TRIDEANQRATKML(K5Fam) [SEQ. ID NO. 6]
BoNT/A-LC [2]
  detection of BoNT/A-LC activity: incapable of detecting BoNT/A-LC activity

## O=C(O)CCP(CCC(=O)O)CCC(=O)O [TCEP, tris(2-carboxyethyl)phosphine, reference compound]
BoNT/A-LC [2]
  performance of reducing agent in BoNT/A-LC assay: performed better than samples with DTT (and zinc), and even better than samples containing no reducing agent
BoNT/A Holotoxin
  performance of TCEP concentration in BoNT/A Holotoxin assay: samples with 1.0 mM TCEP performed better than samples with 2.0 mM TCEP
